Measurements: US20220073448A1, “METHOD FOR SYNTHESIZING CARBOXY-CONTAINING ANTHRAQUINONE DERIVATIVE, CARBOXY-CONTAINING ANTHRAQUINONE DERIVATIVE PREPARED THEREBY, AND BATTERY SYSTEM COMPRISING SAME” (CHINA SALT JINTAN CO., LTD., priority 2019, published 2022)

Experiment: Cyclic voltammetry (CV), three-electrode system, glassy carbon working electrode, Ag/AgCl reference electrode
Format: physicochemical
Settings: 2 mM in potassium hydroxide aqueous solution at pH=14, scan rate 20 mV/s, in V
Text: In the cyclic voltammetry test of the electric pair, the CS Series electrochemical workstation from Wuhan Corrtest Instruments Corp., Ltd. was used to test the electrochemical performance of the organic electric pair with a three-electrode system. The working electrode was a glassy carbon electrode (Tianjin IDA Hengsheng Co.), the reference electrode was a Ag/AgCl electrode, the counter electrode was a platinum electrode, the scan range of the electric pair of positive electrode and negative electrode was −1.0 to 1.0 V, and the scan rate was 20 mV·s^−1.
A 1-[N-(5-carboxybutylacyl)]aminoanthraquinone solution (at a concentration of 2 mM, in a potassium hydroxide aqueous solution at pH=14) was investigated by cyclic voltammetry (CV).
A 1-[N-(6-carboxypentylacyl)]aminoanthraquinone solution (at a concentration of 2 mM, in a potassium hydroxide aqueous solution at pH=14) was investigated by cyclic voltammetry (CV).
A 1-[N-(7-carboxyhexylacyl)]aminoanthraquinone solution (at a concentration of 2 mM, in a potassium hydroxide aqueous solution at pH=14) was investigated by cyclic voltammetry (CV).
A 1-[N-(8-carboxyheptylacyl)]aminoanthraquinone solution (at a concentration of 2 mM, in a potassium hydroxide aqueous solution at pH=14) was investigated by cyclic voltammetry (CV).

Row | redox peak in CV curve | redox peak in CV curve (more negative) | Compound
1 | ~−0.60 | ~−0.67 | 1-[N-(7-carboxyhexylacyl)]aminoanthraquinone
2 | ~−0.60 | ~−0.65 | O=C(O)CCCCC(=O)Nc1cccc2c1C(=O)c1ccccc1C2=O [1-[N-(5-carboxybutylacyl)]aminoanthraquinone]
3 | ~−0.60 | ~−0.66 | O=C(O)CCCCC(=O)Nc1cccc2c1C(=O)c1ccccc1C2=O [1-[N-(6-carboxypentylacyl)]aminoanthraquinone]
4 | ~−0.60 | ~−0.68 | O=C(O)CCCCCCCC(=O)Nc1cccc2c1C(=O)c1ccccc1C2=O [1-[N-(8-carboxyheptylacyl)]aminoanthraquinone]
